Measured values as given in patent US6936600B2, “Sorbitol dehrydrogenase inhibitors” (Pfizer Inc, priority 1999, dated 2005).

Compound	melting point
O=S(=O)(N1CCCCC1)N1CCN(c2ccnc(CO)n2)CC1 [Example 123]	141 to 142 °C
C[C@@H](O)c1nccc(N2CCn3c(nnc3-c3cc4ccccc4s3)C2)n1 [Example 262]	224 to 226 °C
Cc1nc2c(c(N3CCc4ccccc43)n1)CCN(c1ccnc([C@@H](C)O)n1)C2 [Example 99]	128 to 131 °C
C[C@@H](O)c1nccc(N2CCc3nc(-c4ccncc4)ncc3C2)n1 [Example 258]	144 to 148 °C
C[C@@H](O)c1nccc(N2CCC(C3CCN(c4ccnc([C@@H](C)O)n4)CC3)CC2)n1 [Example 3, 1R-(4-{1′-[2-(1R-Hydroxy-ethyl)-pyrimidin-4-yl]-[4,4′]bipiperidinyl-1-yl}-pyrimidin-2-yl)-ethanol]	144 to 153 °C
C[C@@H]1CN(C(=O)/C=C/c2cc3ccccc3o2)C[C@H](C)N1c1ccnc([C@@H](C)O)n1 [Example 130, (E)-3-Benzofuran-2-yl-1-{4-[2-(1R-hydroxy-ethyl)-pyrimidin-4-yl]-2R,6S-dimethyl-piperazin-1-yl}-propenone]	80 to 82 °C
C[C@@H]1CN(c2ncnc(N3CCOCC3)n2)C[C@H](C)N1c1ccnc([C@@H](C)O)n1 [Example 212, 1R-{4-[2R,6S-Dimethyl-4-(4-morpholino-4-yl-[1,3,5]triazin-2-yl)-piperazin-1-yl]-pyrimidin-2-yl}-ethanol]	78 to 82 °C
C[C@@H]1CN(c2ccnc([C@@H](C)O)n2)C[C@H](C)N1C(=O)c1cc2cnccc2o1 [Example 132, Furo[3,2-c]pyridin-2-yl-{4-[2-(1R-hydroxy-ethyl)-pyrimidin-4-yl]-2R,6S-dimethyl-piperazin-1-yl}-methanone]	142 to 143 °C
C[C@@H](O)c1nccc(N2C[C@@H]3C[C@H]2CN3S(=O)(=O)N(C)C)n1 [Example 120]	110 to 111 °C
O=S(=O)(N1CCCC1)N1CCN(c2ccnc(CO)n2)CC1 [Example 121, {4-[4-(Pyrrolidine-1-sulfonyl)-piperazin-1-yl]-pyrimidin-2-yl}-methanol]	128 to 131 °C
C[C@@H](O)c1nccc(N2CCc3cnc(-c4ccccc4)nc3C2)n1 [Example 87]	72 to 74 °C
Cc1cc(C)nc(N2[C@H](C)CN(c3ccnc([C@@H](C)O)n3)C[C@@H]2C)n1 [Example 66, 1R-{4-[4-(4,6-Dimethyl-pyrimidin-2-yl)-3R,5S-dimethyl-piperazin-1-yl]-pyrimidin-2-yl}-ethanol]	141.5 to 142.5 °C
C[C@@H]1CN(c2ccnc(C(C)(C)O)n2)C[C@H](C)N1c1ccnc([C@@H](C)O)n1 [Example 34, 2-(4-{4-[2-(1R-Hydroxy-ethyl)-pyrimidin-4-yl]-3R,5S-dimethyl-piperazin-1-yl}-pyrimidin-2-yl)-propan-2-ol]	138 to 140 °C
C[C@@H](O)c1nccc(N2CCc3nc(-c4ccccc4)ncc3C2)n1 [Example 257]	128 to 131 °C
C[C@@H]1CN(c2ccnc([C@@H](C)O)n2)C[C@H](C)N1c1ccnc(N2CCN(C)CC2)n1 [Example 208, 1R-(4-{3R,5S-Dimethyl-4-[2-(4-methyl-piperazin-1-yl)-pyrimidin-4-yl]-piperazin-1-yl}-pyrimidin-2-yl)-ethanol]	181 to 182 °C
C[C@@H]1CN(c2ccnc([C@@H](C)O)n2)CCN1c1ccnc([C@@H](C)O)n1 [Example 39, 1R-(4-{4-[2-(1R-Hydroxy-ethyl)-pyrimidin-4-yl]-2R-methyl-piperazin-1-yl}-pyrimidin-2-yl)-ethanol]	155 to 157 °C
CC(=O)c1nccc(N2C[C@@H](C)N(c3ccnc([C@@H](C)O)n3)[C@@H](C)C2)n1 [Example 46, 1-(4-{4-[2-(1R-Hydroxy-ethyl)-pyrimidin-4-yl]-3R,5S-dimethyl-piperazin-1-yl}-pyrimidin-2-yl)-ethanone]	150 to 164 °C
C[C@@H](O)c1nccc(N2CCn3c(nnc3-c3nc4ccccc4s3)C2)n1 [Example 259, (R)-1-[4-(3-Benzothiazol-2-yl-5,6-dihydro-8H-[1,2,4]triazolo[4,3-a]pyrazin-7-yl)-pyrimidin-2-yl]-ethanol]	216.5 to 218.5 °C
CC(=O)c1nccc(N2[C@H](C)CN(c3ccnc([C@@H](C)O)n3)C[C@@H]2C)n1 [Example 45, 1-(4-{4-[2-(1R-Hydroxy-ethyl)-pyrimidin-4-yl]-2R,6S-dimethyl-piperazin-1-yl}-pyrimidin-2-yl)-ethanone]	123 to 127 °C
C[C@@H](O)c1nccc(N2CCN(Cc3ccccn3)CC2)n1 [Example 182, (R)-1-[4-(4-Pyridin-2-ylmethyl-piperazin-1-yl)-pyrimidin-2-yl]-ethanol]	68 to 70 °C
C[C@@H](O)c1nccc(N2CCc3c(nc(N)nc3-c3ccccc3)C2)n1 [Example 90]	225 to 228 °C (dec.)
C[C@@H](O)c1nccc(N2CCC(=Cc3cccc(Cl)c3)CC2)n1 [Example 176, (R)-1-{4-[4-(3-Chlorobenzylidene)-piperidin-1-yl]-pyrimidin-2-yl}-ethanol]	45 to 55 °C
C[C@@H](OC(=O)Cc1nn(Cc2nc3cc(C(F)(F)F)ccc3s2)c(=O)c2ccccc12)c1nccc(N2CCN(C(=O)/C=C/c3cccs3)CC2)n1 [Example 276, (E)-[4-Oxo-3-(5-trifluoromethyl-benzothiazol-2-ylmethyl)-3,4-dihydro-phthalazin-1-yl]-acetic acid 1R-{4-[4-(3-thiophen-2-yl-acryloyl)-piperazin-1-yl]-pyrimidin-2-yl}-ethyl ester]	105 to 109 °C
C[C@@H](OC(=O)Cc1nn(Cc2nc3cc(C(F)(F)F)ccc3s2)c(=O)c2ccccc12)c1nccc(N2CCN(c3cnc4ccccc4n3)CC2)n1 [Example 277, (E)-[4-Oxo-3-(5-trifluoromethyl-benzothiazol-2-ylmethyl)-3,4-dihydro-phthalazin-1-yl]-acetic acid 1R-[4-(4-quinoxalin-2-yl-piperazin-1-yl)-pyrimidin-2-yl]-ethyl ester]	108 to 112 °C
Cc1nc(C)nc(N2[C@H](C)CN(c3ccnc([C@@H](C)O)n3)C[C@@H]2C)n1 [Example 242, 1R-{4-[4-(4,6-Dimethyl-[1,3,5]triazin-2-yl)-3R,5S-dimethyl-piperazin-1-yl]-pyrimidin-2-yl}-ethanol]	157 to 159 °C
C[C@@H](O)c1nccc(N2C[C@@H]3C[C@H]2CN3S(=O)(=O)c2cccs2)n1 [Example 116]	84 to 86 °C

Now from value to compound:

melting point	Compound
114 °C	C[C@@H](O)c1nccc(N2CCC(O)(c3ccccc3)CC2)n1 [Example 175, (R)-4-Phenyl-1-[2-(1-hydroxy-ethyl)-pyrimidin-4-yl]-piperidin-4-ol]
83 to 88 °C	C[C@@H](O)c1nccc(N2C[C@@H]3C[C@H]2CN3S(=O)(=O)c2ccc(Cl)cc2)n1 [Example 115]
98 to 101 °C	C[C@@H](O)c1nccc(N2CCC(=C(c3ccccc3)c3ccccn3)CC2)n1 [Example 181]
156 to 158 °C	Cc1nc2c(c(Oc3ccccc3)n1)CCN(c1ccnc([C@@H](C)O)n1)C2 [Example 97]
161 to 162 °C	COc1nc(C)nc(N2[C@H](C)CN(c3ccnc([C@@H](C)O)n3)C[C@@H]2C)n1 [Example 213, 1R-{4-[4-(4-Methoxy-6-methyl-[1,3,5]triazin-2-yl)-3R,5S-dimethylpiperazin-1-yl]-pyrimidin-2-yl}-ethanol]
125.5 to 127.5 °C	C[C@@H](O)c1nccc(N2CCc3cc(-c4ccsc4)ccc3C2)n1 (stereo in doubt) [Example 248, 1-[4-(6-Thiophen-3-yl-3,4-dihydro-1H-isoquinolin-2-yl)-pyrimidin-2-yl]-ethanol]
204 to 207 °C	C[C@@H]1CN(c2nc3cccnc3o2)C[C@H](C)N1c1ccnc([C@@H](C)O)n1 [Example 33, 1R-[4-(2R,6S-Dimethyl-4-oxazolo[5,4-b]pyridin-2-yl-piperazin-1-yl)-pyrimidin-2-yl]-ethanol]
212 to 215 °C	C[C@@H](O)c1nccc(N2CCn3c(nnc3-c3ccc4nccnc4c3)C2)n1 [Example 261]
153 to 155 °C	C[C@@H]1CN(c2ccnc([C@@H](C)O)n2)[C@@H](C)CN1c1ccnc([C@@H](C)O)n1 [Example 4, 1R-(4-{4-[2-(1R-Hydroxy-ethyl)-pyrimidin-4-yl]-2R,S-dimethyl-piperazin-1-yl}-pyrimidin-2-yl)-ethanol]
61 to 70 °C	C[C@@H]1CN(c2ccnc(-c3cccnc3)n2)C[C@H](C)N1c1ccnc([C@@H](C)O)n1 [Example 201, 1R-{4-[2R,6S-Dimethyl-4-(2-pyridin-3-yl-pyrimidin-4-yl)-piperazin-1-yl]-pyrimidin-2-yl}-ethanol]
> 235 °C (dec.)	CC(=O)c1nccc(N2C[C@@H](C)N(c3ccnc(C(C)=O)n3)[C@@H](C)C2)n1 [Example 63, 1-{4-[4-(2-Acetyl-pyrimidin-4-yl)-2R*,6S*-dimethyl-piperazin-1-yl]-pyrimidin-2-yl}-ethanone]
158 to 160 °C	C[C@@H](O)c1nccc(N2CCN(c3ccnc([C@@H](C)O)n3)[C@@H](C)C2)n1 [Example 38, 1R-(4-{4-[2-(1R-Hydroxy-ethyl)-pyrimidin-4-yl]-2S-methyl-piperazin-1-yl}-pyrimidin-2-yl)-ethanol]
123 to 125 °C	C[C@@H](O)c1nccc(N2CCn3c(nnc3-c3ccc(-c4ccccc4)cc3)C2)n1 [Example 263]
208 to 210 °C	C[C@@H](O)c1nccc(N2CCc3nc(N)ncc3C2)n1 [Example 256]
158 to 161 °C	C[C@@H](O)c1nccc(N2CCN(c3nc4ncccc4o3)[C@@H](C)C2)n1 [Example 20, 1R-[4-(3S-Methyl-4-oxazolo[4,5-b]pyridin-2-yl-piperazin-1-yl)-pyrimidin-2-yl]-ethanol]
151 to 158 °C	C[C@@H](O)c1nccc(N2C[C@H]3CCC[C@@H](C2)N3c2ccnc([C@@H](C)O)n2)n1 (stereo in doubt)
73 to 75 °C	C[C@@H](O)c1nccc(N2CCc3c(nc(-c4ccccc4)nc3-c3ccccc3)C2)n1 [Example 91]
44 to 59 °C	C[C@@H](O)c1nccc(N2CCC(=CC(=O)c3ccccc3)CC2)n1 [Example 179]
